Source: the supplement of paper PMC5579334
± gives the standard deviation of the averaged measurements.

Columns and labels:
[1] = system: HSC2 (primary human Schwann cells); experiment: drug sensitivity score (DSS, CellTiter-Glo viability, 72 h) (DSS (dimensionless)); higher = more sensitive; extreme values may be limits of the assay
How it was run: (§1)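 After seeding 750–1000 cells per well of MPNST cell lines or primary human Schwann cells into 384-well plates preprinted with each compound at five concentrations in 10-fold steps, plates were kept 72 h at 37 °C, 5% CO2. Viability was read as CellTiter-Glo ATP luminescence relative to vehicle and positive-control wells, with duplicates averaged where present. The data were fitted with four-parameter logistic models. Drug sensitivity score and relative IC50, censored at the top concentration, derive from the fits, and percent inhibition refers to the top concentration.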

[2] = system: HS-Sch-2; experiment: as above
How it was run: as §1

[3] = system: YST-1; experiment: as above
How it was run: as §1

[4] = system: HSC1 (primary human Schwann cells); experiment: as above
How it was run: as §1

[5] = system: S1507-2; experiment: as above
How it was run: as §1

[6] = system: ST8814; experiment: as above
How it was run: as §1

[7] = system: STS26T; experiment: as above
How it was run: as §1

[8] = system: HS-PSS; experiment: as above
How it was run: as §1

[9] = system: S462; experiment: as above
How it was run: as §1

[10] = system: HSC2 (primary human Schwann cells); experiment: drug sensitivity score (DSS, CellTox-Green cytotoxicity, 72 h) (DSS (dimensionless)); higher = more cytotoxic; extreme values may be limits of the assay
How it was run: (§2)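 For 72 h at 37 °C, MPNST cell lines and primary human Schwann cells were exposed in 384-well plates to five 10-fold compound dilutions. CellTox-Green, added before seeding at a final 1:1000 dilution, gave fluorescence from DNA released by disrupted cells. Signals were scaled to vehicle and positive-control wells, cultures failing plate quality control were left out, and four-parameter logistic fits were applied. Relative IC50 and drug sensitivity score were derived from the fits, with IC50 censored at the top concentration.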

[11] = system: HSC1 (primary human Schwann cells); experiment: as above
How it was run: as §2

[12] = system: S1507-2; experiment: as above
How it was run: as §2

[13] = system: ST8814; experiment: as above
How it was run: as §2

[14] = system: STS26T; experiment: as above
How it was run: as §2

[15] = system: HS-PSS; experiment: as above
How it was run: as §2

[16] = system: HSC2 (primary human Schwann cells); experiment: % inhibition of CellTiter-Glo viability at highest tested concentration (72 h), relative to DMSO and benzethonium chloride controls; higher = more inhibition
How it was run: as §1

[17] = system: HS-Sch-2; experiment: as above
How it was run: as §1

[18] = system: YST-1; experiment: as above
How it was run: as §1

[19] = system: HSC1 (primary human Schwann cells); experiment: as above
How it was run: as §1

[20] = system: S1507-2; experiment: as above
How it was run: as §1

[21] = system: ST8814; experiment: as above
How it was run: as §1

[22] = system: STS26T; experiment: as above
How it was run: as §1

[23] = system: HS-PSS; experiment: as above
How it was run: as §1

[24] = system: S462; experiment: as above
How it was run: as §1

SMILES	drug sensitivity score [1]	drug sensitivity score [2]	drug sensitivity score [3]	drug sensitivity score [4]	drug sensitivity score [5]	drug sensitivity score [6]	drug sensitivity score [7]	drug sensitivity score [8]	drug sensitivity score [9]	drug sensitivity score [10]	drug sensitivity score [11]	drug sensitivity score [12]	drug sensitivity score [13]	drug sensitivity score [14]	drug sensitivity score [15]	% inhibition [16] [%]	% inhibition [17] [%]	% inhibition [18] [%]	% inhibition [19] [%]	% inhibition [20] [%]	% inhibition [21] [%]	% inhibition [22] [%]	% inhibition [23] [%]	% inhibition [24] [%]
Cc1cc2c(F)c(Oc3ncnn4cc(OC[C@@H](C)O)c(C)c34)ccc2[nH]1 [Brivanib] (max concentration tested 1000 nM)	0	0	0	0	0	0	0	0	0	0	0	0	0	0	0	-0.326	-0.92	0.09	-5.58	-1.44 ± 10	-1.65	4.35	-3.58	3.36 ± 7.5
COc1cc2nccc(Oc3ccc(NC(=O)Nc4cc(C)on4)c(Cl)c3)c2cc1OC [Tivozanib] (max concentration tested 10000 nM)	6.35	2.18	4.22	5.86	10.5 ± 0.46	0	3.66	2	6.863 ± 0.013	0	0.17	0.631 ± 0.89	1.94	1.82	0	73.9	51.3	58.2	67.7	42.795 ± 0.006	36.2	45.5	46.2	58.9 ± 1.3
CC(C)(C)c1cnc(CSc2cnc(NC(=O)C3CCNCC3)s2)o1 [SNS-032] (max concentration tested 10000 nM)	38	27.9	29.4	36.9	18.6 ± 1.5	24.5	31.5	25.9	36.8 ± 1.5	14.3	12.8	0	14.4	23.2	1.68	86.5	98.6	99.9	79.4	80.6 ± 3.5	87.2	97.5	70.5	104 ± 0.55
CNC(=O)c1ccc(N2C(=S)N(c3ccc(C#N)c(C(F)(F)F)c3)C(=O)C23CCC3)cc1F [RD162] (max concentration tested 10000 nM)	0	0	0	0.0127	1.24 ± 1.8	0	0	0	0	0	0	2.37 ± 3.4	0	0	0	8.13	9.66	7.83	11.2	10.7 ± 20	10	4.23	-0.07	-0.791 ± 7.8
CO[C@@H](C(=O)N1Cc2[nH]nc(NC(=O)c3ccc(N4CCN(C)CC4)cc3)c2C1)c1ccccc1 [Danusertib] (max concentration tested 10000 nM)	10.4	11.1	12.9	11.4	8.76 ± 2	8.83	5.54	8.49	13.9 ± 0.31	7.05	6.43	1.16 ± 0.24	6.94	3.88	2.75	90.9	76.3	46.4	88.1	66.7 ± 10	85.7	52.5	80.7	88.7 ± 1.7
CC1=NN(c2ccc(C(=O)O)cc2)C(=O)C1=Cc1ccc(-c2cc(C)c(C)cc2[N+](=O)[O-])o1 [C646] (max concentration tested 25000 nM)	0	0	0.68	0	0.311 ± 0.44	0	0	0.34	0.301 ± 0.43	1.71	0	2.69 ± 3.8	0	0	0	-4.28	-1.27	19.6	-3.92	9.84 ± 4.1	3.46	1.97	17.2	1.13 ± 8.9
CN(C)C[C@@H]1CCn2cc(c3ccccc32)C2=C(C(=O)NC2=O)c2cn(c3ccccc23)CCO1 [Ruboxistaurin] (max concentration tested 10000 nM)	7.78	5.19	10	5.06	7.37 ± 0.77	3.54	5.76	5.24	6.12 ± 0.41	8.33	7.83	6.69 ± 0.61	0.807	6.98	1.36	96.3	100	99.7	93.9	98.5 ± 4.9	39.6	97.6	86.7	78.9 ± 11
O=S(=O)(c1cccc2cnccc12)N1CCCNCC1 [Fasudil] (max concentration tested 50000 nM)	1.36	3.75	2.59	1.41	1.02 ± 0.16	0.609	2.86	1.83	3.84 ± 0.63	0	0.888	0	0	0.899	0.2	31.8	71.5	51	27.6	30.5 ± 1.5	22.3	58.9	45.6	70.6 ± 9.4
CO[C@H]1[C@@H](N(C)C(=O)c2ccccc2)C[C@@H]2O[C@@]1(C)n1c3ccccc3c3c4c(c5c6ccccc6n2c5c31)C(=O)NC4 [Midostaurin] (max concentration tested 10000 nM)	20.7	12.2	11.4	21.6	16.5 ± 1.1	13.9	11.5	9.08	10.7 ± 0.49	19.4	11.9	6.96 ± 1.9	11.1	13.4	0	95.5	73.6	52.8	93.2	90.3 ± 1	85.2	71.8	56.4	71.9 ± 4.6
O=C(Nc1ccc2[nH]nc(-c3ccncc3)c2c1)[C@@H]1CCN(CC(=O)N2CCN(c3ccc(-c4ncccn4)cc3)CC2)C1 (max concentration tested 10000 nM)	10.6	8.78	1.98	10.4	10.7 ± 1.2	16.7	4.44	5.75	20.4 ± 0.4	0.0074	0	9.36 ± 3.5	10.8	1.59	0	51.2	66.4	31.8	61.3	77.5 ± 2.5	91.2	40.4	45.2	97 ± 2.1
Nc1nc(Cl)nc2c1ncn2[C@H]1C[C@H](O)[C@@H](CO)O1 [Cladribine] (max concentration tested 1000 nM)	6.3	3.37	2.87	5.81	0.0035 ± 0.005	0.423	3.75	1.59	0.676 ± 0.56	5.38	4.05	4.43 ± 6.3	0.837	0.902	0.65	71.9	67.9	54.4	61.2	9.03 ± 3	21.3	52.5	38.4	24.7 ± 8.6
Nc1nc(F)nc2c1ncn2[C@@H]1O[C@H](CO)[C@@H](O)[C@@H]1O [Fludarabine] (max concentration tested 10000 nM)	2.94	2.33	3.5	0.98	0.851 ± 1.2	0	2.39	2.18	0.582 ± 0.72	0	0	0	0	0	0	48.6	35	69.7	27.8	17.2 ± 10	1.25	31.6	24.9	20 ± 11
CS(=O)(=O)CCNCc1ccc(-c2ccc3ncnc(Nc4ccc(OCc5cccc(F)c5)c(Cl)c4)c3c2)o1 [Lapatinib] (max concentration tested 1000 nM)	0	0	0.63	0	0	0	0.0002	0	0	0	0	0	0	0	0	5.46	1.85	22.2	7.8	2.48 ± 6	-2.6	10.1	6.86	-5.81 ± 6.8
